Assay [1] addresses T1, Mitogen-activated protein kinase 13 (Homo sapiens) (UniProt O15264).
T1 sequence (whole entry): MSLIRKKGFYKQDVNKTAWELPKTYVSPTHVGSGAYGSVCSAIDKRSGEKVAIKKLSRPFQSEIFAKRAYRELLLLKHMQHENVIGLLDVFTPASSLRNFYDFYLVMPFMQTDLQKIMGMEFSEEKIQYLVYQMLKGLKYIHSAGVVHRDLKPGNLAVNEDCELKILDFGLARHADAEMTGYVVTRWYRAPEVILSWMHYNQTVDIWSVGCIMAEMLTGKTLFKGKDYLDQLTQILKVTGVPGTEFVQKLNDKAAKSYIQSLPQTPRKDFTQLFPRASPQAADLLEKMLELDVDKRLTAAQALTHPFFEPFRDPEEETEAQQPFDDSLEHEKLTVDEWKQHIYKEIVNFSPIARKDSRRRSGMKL
Nature of the assay: Selectivity interaction (Kinase panel (KiNativ target engagement assay in Jurkat cells)) EUB0001635a MAPK13. The class given is cell-based. The conditions noted are these: Selectivity number of off-targets 0.0, Selectivity number of targets 233.0, Source Knowledge https://www.sciencedirect.com/science/article/pii/S2451945619300674?via%3Dihub, at 1 µM.

The target in assay [2] is Mitogen-activated protein kinase kinase kinase kinase 4 (Homo sapiens, UniProt O95819). Nature of the assay: Selectivity interaction (Kinase panel (KiNativ target engagement assay in Jurkat cells)) EUB0001635a MAP4K4. The class given is cell-based. Conditions: Selectivity number of off-targets 0.0, Selectivity number of targets 233.0, Source Knowledge https://www.sciencedirect.com/science/article/pii/S2451945619300674?via%3Dihub, at 1 µM.

Assay [3] has as its target Phosphatidylinositol 4-phosphate 3-kinase C2 domain-containing subunit beta (Homo sapiens) (UniProt O00750). The assay can be described thus: Selectivity interaction (KinomeScan (DiscoverX)) EUB0000607a PIK3C2B. Conditions: at 10 µM.
Assay [4] concerns the target Eukaryotic translation initiation factor 2-alpha kinase 1 (Homo sapiens) (UniProt Q9BQI3). The conditions noted are these: at 10 µM.
Assay [5] addresses Protein kinase C theta type (Homo sapiens, UniProt Q04759). Conditions: at 10 µM.
For assay [6], the target named is T2, Dual specificity mitogen-activated protein kinase kinase 6 (Homo sapiens) (UniProt P52564).
T2 sequence (whole entry): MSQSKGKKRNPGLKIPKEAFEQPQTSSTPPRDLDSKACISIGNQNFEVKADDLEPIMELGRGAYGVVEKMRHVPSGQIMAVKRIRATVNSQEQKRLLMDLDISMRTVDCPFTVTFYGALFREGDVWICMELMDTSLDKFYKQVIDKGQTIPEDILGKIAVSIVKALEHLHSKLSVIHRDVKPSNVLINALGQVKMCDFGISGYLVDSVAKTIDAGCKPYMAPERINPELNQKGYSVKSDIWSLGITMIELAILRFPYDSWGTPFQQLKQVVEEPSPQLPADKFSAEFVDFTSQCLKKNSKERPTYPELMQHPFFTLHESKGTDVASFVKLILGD
The assay can be described thus: Selectivity interaction (Kinase panel (DSF assay)) EUB0001558a MAP2K6. (In general: In DSF a fluorescence change marks the thermal transition of the protein.)

Assay [7] has as its target Tyrosine-protein kinase Lck (Homo sapiens, UniProt P06239). The assay can be described thus: Selectivity interaction (KinomeScan (DiscoverX)) EUB0000655a LCK. Conditions: at 10 µM.
Assay [8] concerns the target Proto-oncogene tyrosine-protein kinase Src (Homo sapiens, UniProt P12931). Nature of the assay: Selectivity interaction (ActivX KiNativ screen (ex vivo kinase selectivity in human PBMCs)) EUB0001619a SRC. The class given is cell-based. Conditions: PBMC, at 1 µM.
For assay [9], the target named is T3, Mitogen-activated protein kinase kinase kinase 2 (Homo sapiens) (UniProt Q9Y2U5).
T3 sequence (whole entry): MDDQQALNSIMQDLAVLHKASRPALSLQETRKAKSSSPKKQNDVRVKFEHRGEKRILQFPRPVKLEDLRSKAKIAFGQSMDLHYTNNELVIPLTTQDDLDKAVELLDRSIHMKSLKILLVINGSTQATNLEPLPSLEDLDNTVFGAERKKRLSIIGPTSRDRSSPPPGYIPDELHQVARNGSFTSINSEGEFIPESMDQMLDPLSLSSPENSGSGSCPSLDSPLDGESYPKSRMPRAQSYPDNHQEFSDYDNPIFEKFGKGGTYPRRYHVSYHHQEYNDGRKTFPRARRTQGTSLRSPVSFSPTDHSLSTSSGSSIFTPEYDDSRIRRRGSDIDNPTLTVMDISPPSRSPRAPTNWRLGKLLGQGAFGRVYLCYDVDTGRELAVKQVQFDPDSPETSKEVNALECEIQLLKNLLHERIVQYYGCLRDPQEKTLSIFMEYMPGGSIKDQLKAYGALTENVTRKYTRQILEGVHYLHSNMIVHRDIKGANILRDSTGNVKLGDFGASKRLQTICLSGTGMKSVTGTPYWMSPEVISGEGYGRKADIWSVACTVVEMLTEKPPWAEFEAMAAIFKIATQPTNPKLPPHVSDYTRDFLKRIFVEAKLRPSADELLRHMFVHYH
Nature of the assay: Selectivity interaction (Kinase panel (Invitrogen)) EUB0000639a MAP3K2. Conditions: at 200 nM.

In assay [10] the target is Tyrosine-protein kinase Yes (Homo sapiens) (UniProt P07947). Nature of the assay: Selectivity interaction (Kinase screening (Nanosyn)) EUB0000604a YES1.
Chain of Tyrosine-protein kinase Yes (Homo sapiens) (P07947 2-543 limits assumed): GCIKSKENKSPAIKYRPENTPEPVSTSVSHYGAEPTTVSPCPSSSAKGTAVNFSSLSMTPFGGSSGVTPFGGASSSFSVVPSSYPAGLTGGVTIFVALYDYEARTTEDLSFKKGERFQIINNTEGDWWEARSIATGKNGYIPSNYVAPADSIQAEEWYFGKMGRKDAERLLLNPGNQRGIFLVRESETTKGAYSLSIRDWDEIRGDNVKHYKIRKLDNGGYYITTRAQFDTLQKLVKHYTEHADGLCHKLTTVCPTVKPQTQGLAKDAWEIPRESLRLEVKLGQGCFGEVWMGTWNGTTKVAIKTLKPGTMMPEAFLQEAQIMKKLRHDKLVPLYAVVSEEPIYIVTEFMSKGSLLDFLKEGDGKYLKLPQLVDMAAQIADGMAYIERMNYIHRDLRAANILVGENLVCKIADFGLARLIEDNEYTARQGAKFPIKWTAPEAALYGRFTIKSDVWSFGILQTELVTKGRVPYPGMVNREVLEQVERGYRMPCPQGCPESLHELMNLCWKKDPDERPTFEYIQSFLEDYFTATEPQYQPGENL
Assay [11] deals with Casein kinase I isoform gamma-3 (Homo sapiens) (UniProt Q9Y6M4). The conditions noted are these: at 10 µM.
Chain of Casein kinase I isoform gamma-3 (Homo sapiens) (Q9Y6M4 whole entry, looked up, canonical isoform): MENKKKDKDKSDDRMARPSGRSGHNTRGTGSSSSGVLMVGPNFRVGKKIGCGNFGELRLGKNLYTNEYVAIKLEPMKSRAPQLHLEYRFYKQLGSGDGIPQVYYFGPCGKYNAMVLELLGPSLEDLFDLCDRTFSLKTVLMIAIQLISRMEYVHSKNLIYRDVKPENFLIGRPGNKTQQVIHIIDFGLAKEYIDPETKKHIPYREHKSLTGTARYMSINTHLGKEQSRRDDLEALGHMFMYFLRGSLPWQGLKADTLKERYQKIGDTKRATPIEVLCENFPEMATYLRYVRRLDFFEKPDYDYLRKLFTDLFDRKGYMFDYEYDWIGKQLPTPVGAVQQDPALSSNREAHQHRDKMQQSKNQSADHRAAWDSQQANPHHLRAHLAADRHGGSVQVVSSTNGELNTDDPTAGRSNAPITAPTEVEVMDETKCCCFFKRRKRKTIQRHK
In assay [12] the target is T4, Serine/threonine-protein kinase Sgk3 (Homo sapiens) (UniProt Q96BR1).
T4 sequence (whole entry): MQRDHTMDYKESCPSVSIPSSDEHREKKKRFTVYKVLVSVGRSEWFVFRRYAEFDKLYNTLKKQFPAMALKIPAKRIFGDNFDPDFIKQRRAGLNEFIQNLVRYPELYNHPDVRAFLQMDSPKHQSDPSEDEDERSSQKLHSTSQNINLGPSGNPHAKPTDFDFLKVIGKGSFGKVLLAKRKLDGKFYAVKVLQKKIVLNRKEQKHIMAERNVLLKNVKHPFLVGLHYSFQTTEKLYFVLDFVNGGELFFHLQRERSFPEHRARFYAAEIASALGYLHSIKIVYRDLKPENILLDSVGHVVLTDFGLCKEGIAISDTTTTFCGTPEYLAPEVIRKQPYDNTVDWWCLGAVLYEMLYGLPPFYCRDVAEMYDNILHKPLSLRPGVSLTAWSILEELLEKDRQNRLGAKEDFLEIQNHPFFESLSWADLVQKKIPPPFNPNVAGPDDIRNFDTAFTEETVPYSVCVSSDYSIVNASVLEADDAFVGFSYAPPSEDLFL
Nature of the assay: Selectivity interaction (KinomeScan (DiscoverX)) EUB0001049a SGK3. The conditions noted are these: at 1 µM.

Assay [13] has as its target T2, Dual specificity mitogen-activated protein kinase kinase 6 (Homo sapiens). The assay can be described thus: Selectivity interaction (KinomeScan (DiscoverX)) EUB0000045b MAP2K6.
Assay [14] concerns the target Serine/threonine-protein kinase MRCK gamma (Homo sapiens) (UniProt Q6DT37). The assay can be described thus: Selectivity interaction (KinomeScan (DiscoverX)) EUB0000618a CDC42BPG. Conditions: at 10 µM.
Assay [15] addresses T2, Dual specificity mitogen-activated protein kinase kinase 6 (Homo sapiens). The assay can be described thus: Selectivity interaction (Upstate Kinase Profiler service (Millipore)) EUB0000056c MAP2K6. Conditions: at 1 µM.
Assay [16] has as its system Phosphatidylinositol 4,5-bisphosphate 3-kinase catalytic subunit alpha isoform (Homo sapiens), P42336 [Q546K]. Conditions: at 10 µM.

Structures are written as SMILES.

Chain of Eukaryotic translation initiation factor 2-alpha kinase 1 (Homo sapiens) (Q9BQI3 whole entry): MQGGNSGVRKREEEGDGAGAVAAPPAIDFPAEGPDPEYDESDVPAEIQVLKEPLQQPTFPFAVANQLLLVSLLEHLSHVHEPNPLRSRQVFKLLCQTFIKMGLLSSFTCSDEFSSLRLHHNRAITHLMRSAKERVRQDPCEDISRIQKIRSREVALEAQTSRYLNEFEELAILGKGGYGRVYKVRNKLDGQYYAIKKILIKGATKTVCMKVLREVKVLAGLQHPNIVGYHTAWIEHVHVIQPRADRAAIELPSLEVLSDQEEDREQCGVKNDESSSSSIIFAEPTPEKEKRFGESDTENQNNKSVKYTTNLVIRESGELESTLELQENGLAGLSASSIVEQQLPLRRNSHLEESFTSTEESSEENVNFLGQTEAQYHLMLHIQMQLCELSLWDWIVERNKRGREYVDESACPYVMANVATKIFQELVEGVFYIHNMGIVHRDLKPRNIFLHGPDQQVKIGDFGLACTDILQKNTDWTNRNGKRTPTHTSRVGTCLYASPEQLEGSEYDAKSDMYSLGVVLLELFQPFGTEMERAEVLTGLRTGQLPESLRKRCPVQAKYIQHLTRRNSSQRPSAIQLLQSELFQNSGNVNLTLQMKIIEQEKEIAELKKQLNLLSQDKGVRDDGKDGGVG
Chain of Phosphatidylinositol 4-phosphate 3-kinase C2 domain-containing subunit beta (Homo sapiens) (O00750 whole entry, the tested form may be a part): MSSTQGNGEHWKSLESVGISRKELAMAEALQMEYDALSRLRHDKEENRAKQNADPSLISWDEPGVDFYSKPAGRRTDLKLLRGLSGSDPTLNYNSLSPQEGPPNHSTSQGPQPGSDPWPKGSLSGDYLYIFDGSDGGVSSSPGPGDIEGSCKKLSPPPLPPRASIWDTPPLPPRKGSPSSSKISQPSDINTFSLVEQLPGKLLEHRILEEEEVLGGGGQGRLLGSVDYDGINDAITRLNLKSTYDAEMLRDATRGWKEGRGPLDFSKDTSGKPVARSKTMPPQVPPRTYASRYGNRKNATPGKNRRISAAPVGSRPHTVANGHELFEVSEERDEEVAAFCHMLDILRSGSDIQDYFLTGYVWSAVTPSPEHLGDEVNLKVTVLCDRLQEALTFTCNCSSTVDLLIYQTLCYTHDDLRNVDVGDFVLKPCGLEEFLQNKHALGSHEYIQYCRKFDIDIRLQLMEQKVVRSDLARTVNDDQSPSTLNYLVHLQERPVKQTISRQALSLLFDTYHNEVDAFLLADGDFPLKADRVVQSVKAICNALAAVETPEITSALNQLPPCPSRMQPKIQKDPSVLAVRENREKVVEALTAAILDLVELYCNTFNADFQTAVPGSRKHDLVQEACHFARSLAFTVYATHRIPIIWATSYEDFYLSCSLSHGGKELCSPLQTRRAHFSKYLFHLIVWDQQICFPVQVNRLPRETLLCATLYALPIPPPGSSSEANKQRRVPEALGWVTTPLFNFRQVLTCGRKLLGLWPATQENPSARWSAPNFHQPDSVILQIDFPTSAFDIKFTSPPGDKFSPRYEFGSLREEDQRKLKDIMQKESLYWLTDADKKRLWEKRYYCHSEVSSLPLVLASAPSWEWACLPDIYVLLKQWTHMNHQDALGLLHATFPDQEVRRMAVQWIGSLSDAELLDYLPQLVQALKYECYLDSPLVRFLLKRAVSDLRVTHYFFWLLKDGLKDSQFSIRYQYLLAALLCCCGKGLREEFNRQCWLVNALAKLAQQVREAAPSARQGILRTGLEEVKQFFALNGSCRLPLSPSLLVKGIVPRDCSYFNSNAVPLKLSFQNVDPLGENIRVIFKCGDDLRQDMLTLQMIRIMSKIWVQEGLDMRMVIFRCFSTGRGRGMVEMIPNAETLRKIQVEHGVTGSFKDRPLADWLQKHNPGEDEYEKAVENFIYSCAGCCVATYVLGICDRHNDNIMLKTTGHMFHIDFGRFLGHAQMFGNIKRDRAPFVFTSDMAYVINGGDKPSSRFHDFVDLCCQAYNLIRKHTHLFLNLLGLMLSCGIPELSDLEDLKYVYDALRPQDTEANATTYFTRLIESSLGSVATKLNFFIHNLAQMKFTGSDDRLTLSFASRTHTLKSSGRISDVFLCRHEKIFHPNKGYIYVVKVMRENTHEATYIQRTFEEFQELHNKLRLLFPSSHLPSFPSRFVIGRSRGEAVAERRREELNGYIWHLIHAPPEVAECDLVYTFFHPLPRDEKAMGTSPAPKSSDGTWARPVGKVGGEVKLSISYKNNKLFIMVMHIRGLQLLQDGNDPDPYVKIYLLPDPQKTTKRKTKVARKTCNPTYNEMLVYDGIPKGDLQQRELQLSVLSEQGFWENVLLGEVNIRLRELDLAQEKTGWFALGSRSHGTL
Chain of Proto-oncogene tyrosine-protein kinase Src (P12931 2-536 limits assumed): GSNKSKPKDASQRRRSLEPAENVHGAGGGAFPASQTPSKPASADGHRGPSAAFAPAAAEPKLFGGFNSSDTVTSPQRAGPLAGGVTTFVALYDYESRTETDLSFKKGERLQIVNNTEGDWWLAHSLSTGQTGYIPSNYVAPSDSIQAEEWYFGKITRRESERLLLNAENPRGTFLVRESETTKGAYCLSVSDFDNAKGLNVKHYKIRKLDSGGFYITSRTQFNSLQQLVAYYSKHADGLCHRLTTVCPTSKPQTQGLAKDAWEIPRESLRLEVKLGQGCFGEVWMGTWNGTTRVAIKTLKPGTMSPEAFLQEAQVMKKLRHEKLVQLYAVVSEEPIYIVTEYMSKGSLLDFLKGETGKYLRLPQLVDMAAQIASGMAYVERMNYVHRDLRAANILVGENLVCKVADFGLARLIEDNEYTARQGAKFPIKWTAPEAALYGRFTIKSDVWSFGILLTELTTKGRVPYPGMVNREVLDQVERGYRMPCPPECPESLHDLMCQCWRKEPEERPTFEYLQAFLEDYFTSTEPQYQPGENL
Chain of Phosphatidylinositol 4,5-bisphosphate 3-kinase catalytic subunit alpha isoform (Homo sapiens), P42336 [Q546K] (P42336 whole entry Q546K, canonical isoform): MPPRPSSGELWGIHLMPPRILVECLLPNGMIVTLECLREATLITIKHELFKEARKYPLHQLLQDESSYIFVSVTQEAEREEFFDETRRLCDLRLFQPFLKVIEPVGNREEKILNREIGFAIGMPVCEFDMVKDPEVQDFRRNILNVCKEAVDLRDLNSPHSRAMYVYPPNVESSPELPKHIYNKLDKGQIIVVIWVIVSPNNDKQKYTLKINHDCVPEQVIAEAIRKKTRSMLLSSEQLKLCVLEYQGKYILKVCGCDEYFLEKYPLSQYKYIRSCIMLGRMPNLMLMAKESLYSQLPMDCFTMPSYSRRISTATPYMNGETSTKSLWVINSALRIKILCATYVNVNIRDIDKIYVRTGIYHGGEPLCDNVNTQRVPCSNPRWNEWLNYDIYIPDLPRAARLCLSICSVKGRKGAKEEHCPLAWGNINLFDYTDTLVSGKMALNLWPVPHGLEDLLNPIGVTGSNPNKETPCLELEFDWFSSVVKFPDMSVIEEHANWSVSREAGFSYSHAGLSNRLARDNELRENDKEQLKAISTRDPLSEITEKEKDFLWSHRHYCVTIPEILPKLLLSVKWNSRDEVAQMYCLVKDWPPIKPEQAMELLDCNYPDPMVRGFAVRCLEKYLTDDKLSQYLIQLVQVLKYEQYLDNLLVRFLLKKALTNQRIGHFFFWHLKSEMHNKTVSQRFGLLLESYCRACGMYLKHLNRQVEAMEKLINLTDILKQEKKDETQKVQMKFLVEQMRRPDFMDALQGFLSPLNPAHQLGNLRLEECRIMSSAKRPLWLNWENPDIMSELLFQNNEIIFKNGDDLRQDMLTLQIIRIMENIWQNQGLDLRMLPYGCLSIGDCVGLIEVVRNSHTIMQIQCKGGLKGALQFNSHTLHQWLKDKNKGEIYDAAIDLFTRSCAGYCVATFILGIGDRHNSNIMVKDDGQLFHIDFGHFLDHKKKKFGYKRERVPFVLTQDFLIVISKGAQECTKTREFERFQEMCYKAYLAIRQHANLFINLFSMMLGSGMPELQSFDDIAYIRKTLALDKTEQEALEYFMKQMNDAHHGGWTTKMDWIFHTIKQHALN

Turning to `C=CC(=O)Nc1ccc(C(=O)Nc2[nH]nc3c2CN(C(=O)N[C@H](CN(C)C)c2ccccc2)C3(C)C)cc1`, the % of engagement in assay [1] is -10.3%; in assay [2], -15.4%. As to `CNC(=O)Nc1ccc(-c2nc(N3CC4CCC(C3)O4)c3cnn(C4CCC5(CC4)OCCO5)c3n2)cc1`, in assay [3], the % of control was 25%. For `Cc1cc([C@@H](C)Nc2ccccc2C(=O)O)c2nc(N3CCOCC3)cc(=O)n2c1` [AZD-6482], the % of control in assay [4] and in assay [5] was 97% each time. `CC(C)(O)[C@H](F)CN1Cc2cc(NC(=O)c3cnn4cccnc34)c(N3CCOCC3)cc2C1=O` gave a dTM in [6] of 0.3 K. As to `CN(C)CCOc1ccc(-c2nc(-c3ccncc3)c(-c3ccc4c(c3)CC/C4=N\O)[nH]2)cc1`, the % of control in assay [7] stood at 29%. For the compound `N#Cc1cccc(-c2c[nH]c3ncnc(N4CCOCC4)c23)c1`, in assay [8], the % of inhibition amounted to 30%. Take `CC[C@@H]1[C@H](F)C(=O)N[C@@H]1COc1nccc2cc(C(N)=O)c(OC)cc12` [ZIMLOVISERTIB]: the % of inhibition in assay [9] is -4.03%. In the case of `Cc1cnc(Nc2ccc(F)cc2Cl)nc1-c1c[nH]c(C(=O)N[C@H](CO)c2cccc(Cl)c2)c1`, the % of inhibition in [10] amounted to 5%. In assay [11], `CCN(CC)CCCCNc1ncc2cc(-c3cc(OC)cc(OC)c3)c(NC(=O)NC(C)(C)C)nc2n1` had a % of control of 100%.

Compound `COc1cc(Nc2nc(C)cc(-c3cnn4nc(OC)ccc34)n2)cc(C(F)(F)F)c1` yielded a % of control in [12] of 74%. In the case of `C=CC(=O)Nc1cc(-n2c(=O)ccc3cnc4ccc(-c5ccc(NS(C)(=O)=O)cc5)cc4c32)ccc1C`, the % of control in assay [13] (at 1 µM) amounted to 100%; in assay [13] (at 10 µM), 70%. The compound `O[C@H]1CC[C@H](Nc2ncc3nc(Nc4c(F)cc(F)cc4F)n([C@H]4CCOC4)c3n2)CC1` came in with a % of control in assay [14] of 81%.

For `Cc1ccc(-c2ccc3c(ccc4sc5c(c43)NC[C@@H](C)NC5=O)n2)cn1`, the % of inhibition in assay [15] was found to be 2%.

The compound `COCC(=O)NC/C=C/c1ccc2ncnc(Nc3ccc(Oc4ccc(C)nc4)c(C)c3)c2c1` [CP-724714] returned a % of control in assay [16] of 38%.
